Data as given in US20180118707A1, “BETA-NAPHTHOISOFLAVONES, COMPOSITIONS CONTAINING, AND USES OF, SAME” (Thesan Pharmaceuticals, Inc., priority 2015, published 2018).

Tests used:
CYP1A1 enzyme = test: Induction of CYP1A1 enzyme in human cultured sebocytes, EROD assay; format: cell-based; details: 10 uM, 24 h
Description: (§1) Cells are seeded at between 1×10^4 and 2.5×10^4 cells/well in a 96-well microtitre plate. […] 100 μl of medium is then transferred to a fresh black 96-well plate and 130 μl methanol added. The formation of resorufin is quantified by fluorometry with a fluorescence plate reader. Fluorescence is determined at λex 570 nm and λem 590 nm. The amount of resorufin is calculated from a standard curve generated using 0 to 1 μM resorufin in water at ½ log dilutions. The remaining (i.e. all cells present at the beginning of analysis, since only supernatant is taken to assay EROD) live cells are subsequently utilized for the MU cytotoxicity assay. MU is made up in serum-free medium at 5 mg/mi. then added to the cells giving a final concentration of 10% (0.5 mg/ml MIT final) then incubated for 2 h. The medium is carefully removed, then MIT formazan is solubilized by adding 200 μl of DMSO and subsequently mixed on a plate shaker. The absorbance is measured spectrophotometrically at 550 nm and background absorbance at […] is subtracted. A standard curve generated using MTT formazan (dissolved in DMSO) from O—200 μM (0, 2, 5, 10, 20, 50, 100, 200 μM) is used to calculate the final experimental values which are then expressed as (μmol resorufin/mol MTT formazan) or as fold-induction compared to solvent.

CYP1A1 = test: as above; format: cell-based; details: cultured sebocytes, probe 7-ethoxyresorufin (8 μM)
Description: as §1

human sebocyte cells = test: MTT cytotoxicity assay in human cultured sebocytes after EROD; format: cell-based
Description: The essential methodology for culture and handling of human cultured sebocytes has been described in earlier examples for HEPG2 and NHK cells. Cells are seeded at between 1×10^4 and 2.5×10^4 cells/well in a 96-well microtitre plate. […] The formation of resorufin is quantified by fluorometry with a fluorescence plate reader. Fluorescence is determined at λex 570 nm and λem 590 nm. The amount of resorufin is calculated from a standard curve generated using 0 to 1 μM resorufin in water at ½ log dilutions. The remaining (i.e. all cells present at the beginning of analysis, since only supernatant is taken to assay EROD) live cells are subsequently utilized for the MU cytotoxicity assay. MU is made up in serum-free medium at 5 mg/mi. then added to the cells giving a final concentration of 10% (0.5 mg/ml MIT final) then incubated for 2 h. The medium is carefully removed, then MIT formazan is solubilized by adding 200 μl of DMSO and subsequently mixed on a plate shaker. The absorbance is measured spectrophotometrically at 550 nm and background absorbance at […] is subtracted. A standard curve generated using MTT formazan (dissolved in DMSO) from O—200 μM (0, 2, 5, 10, 20, 50, 100, 200 μM) is used to calculate the final experimental values which are then expressed as (μmol resorufin/mol MTT formazan) or as fold-induction compared to solvent.

CYP1A1 mRNA = test: Induction of CYP1A1 mRNA in HepG2 cells (RT-PCR); format: cell-based, human; details: 24 h incubation, 10 uM, normalized to 18S rRNA
Description: HepG2 cells (American Type Culture Collection (ATCC), Manassas, Va.) were cultured using Eagle's minimal essential medium (ATCC), supplemented with 10% fetal calf serum (Invitrogen Life Technologies). The cells were cultured continuously until used in experiments (similar to Examples 2 and 3). Celts were plated at a seeding density of 3.8×10^5 cells per well on 6-well plates (Corning Costar, N.Y., U.S.A.). Cells were allowed to attach for 24 h in a 37° C. humidified incubator with a 5% CO2 atmosphere. Media was replaced with that containing test agents or vehicle (0.1% dimethylsuiphoxide) and cells incubated for a further 24 h. Following the 24 h incubation with test agents, media was removed and RNA prepared using the Purelink RNA mini kit (ThermoFischer, Carlsbad, Calif.). Nucleic acid concentration was determined using a Nanodrop™ spectrophotometer (ThermoScientific) by measuring the OD at 260 nm and RNA purity was evaluated using the OD 260/280 nm ratio, 1 μg RNA was reverse transcribed using SuperScript®VILO™ (ThermoFischer) with cDNA synthesis performed using the following parameters: 10min at 25° C., 2 h at 42° C., 5min at 85° C. (deactivation) followed by a completion temperature de C. […] Results were analyzed by calculating the fold change of CYP1A1 mRNA levels normalized to 18S rRNA (ΔΔCt) in compound treated cells or tissues compared to vehicle levels.

Q: For O=c1cc(-c2ccccc2)oc2ccc3ccccc3c12 [D, 3-Phenyl-1H-benzo[f]chromen-1-one, reference compound], which “% change vs. TCDD EROD (Sebs) at 10 uM” value (CYP1A1 enzyme) is on record?
A: Its value is 17%.

Q: And the EC50 at 24 h (CYP1A1)?
A: Its EC50 at 24 h is 1 µM.

Q: And the Toxicity threshold (human sebocyte cells)?
A: The Toxicity threshold was 30 µM.

Q: What about the “CYP1A1 mRNA fold change from vehicle” value (CYP1A1 mRNA) of the same compound?
A: Its value is 596 fold.
